Assay results: patent publication US20250051327A1, “MALT-1 MODULATORS” (EXSCIENTIA AI LIMITED, priority 2020, published 2025)
Where two headings read alike, the source gives them in different places.

Key:
[1] = molecular target: Recombinant human MALT-1 (amino acids 340-824) (Homo sapiens (Human), UniProt Q9UDY8); test: MALT-1 inhibition assay (fluorogenic substrate Ac-LRSR-Rh110-DP); format: biochemical; details: recombinant human MALT-1, substrate Ac-LRSR-Rh110-DP
Summary of the method: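 MALT-1 at 3 nM final was reacted with 10 μM Ac-LRSR-Rh110-DP, with substrate addition starting the reaction. Incubation ran 60 minutes at 25° C in the dark. Percent inhibition from fluorescence across doses was fitted to a 4-parameter logistic to give IC50.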

[2] = test system: IL-2 secretion by human effector memory T cells (TEM); test: Effector memory T cells IL-2 release assay; format: cell-based; details: human CD4+ effector memory T cells, CD3/CD28 bead stimulation, 24 h, read-out: CD4TC IL2 IC50
Summary of the method: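 Human CD4+ effector memory T cells from healthy-donor buffy coats were stimulated with anti-CD3/CD28 Dynabeads and exposed to 10 semi-log compound doses (0.1% DMSO) for 24 h at 37 °C. Supernatant IL-2 was measured by HTRF, and IC50 came from a 4-parameter logistic fit to maximal IL-2. Viability was checked by flow cytometry.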

Sequence of Recombinant human MALT-1 (amino acids 340-824) (Q9UDY8 340-824): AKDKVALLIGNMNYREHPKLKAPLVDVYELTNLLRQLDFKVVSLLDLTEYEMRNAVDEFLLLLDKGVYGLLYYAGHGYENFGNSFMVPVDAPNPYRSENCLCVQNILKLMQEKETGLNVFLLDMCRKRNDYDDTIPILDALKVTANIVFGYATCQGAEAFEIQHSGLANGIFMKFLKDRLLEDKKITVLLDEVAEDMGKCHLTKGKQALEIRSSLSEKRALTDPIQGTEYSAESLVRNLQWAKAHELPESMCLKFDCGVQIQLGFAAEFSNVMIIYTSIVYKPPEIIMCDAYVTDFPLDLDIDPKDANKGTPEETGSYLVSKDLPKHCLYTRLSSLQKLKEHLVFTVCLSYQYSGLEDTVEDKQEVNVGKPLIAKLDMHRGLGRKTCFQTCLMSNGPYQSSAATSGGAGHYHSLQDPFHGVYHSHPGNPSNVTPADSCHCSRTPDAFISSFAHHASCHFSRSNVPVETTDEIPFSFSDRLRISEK

| Structure (SMILES) | IC50 [1] | IC50 ([2]; T-cell) | IC50 [2] |
| --- | --- | --- | --- |
| CN(C(=O)C1CCS(=O)(=O)C1)[C@@H](c1ccc(N2CCCc3c2cnc2cc(Cl)nn32)cc1)C(F)(F)F (stereo partly shown) [CPD0021573] | 131 nM | 85 nM | – |
| CN(C(=O)[C@H]1CCCS(=O)(=O)C1)[C@@H](c1ccc(N2CCCc3c2cnc2cc(Cl)nn32)cc1)C(F)(F)F [CPD0021809] | 154 nM | 143 nM | – |
| CN(C(=O)[C@H]1CC[S@@+]([O-])CC1)[C@@H](c1ccc(N2CCC3(CC3)c3c2cnc2cc(Cl)nn32)cc1)C(F)(F)F (relative stereo) [CPD0072778, (1rel-s,4rel-s)-N-[(1S)-1-(4-{4′-chloro-2′,3′,7′,10′-tetraazaspiro[cyclopropane-1,13′-tricyclo[7.4.0.0^2,6]tridecane]-1′(9′),3′,5′,7′-tetraen-10′-yl}phenyl)-2,2,2-trifluoroethyl]-N-methyl-1-oxo-1λ^4-thiane-4-carboxamide] | 58 nM | 42 nM | – |
| CN=[S@]1(=O)CC[C@@H](C(=O)N(C)[C@@H](c2ccc(N3CCCc4c3cnc3cc(Cl)nn43)cc2)C(F)(F)F)CC1 (relative stereo) [CPD0072530, (1rel-S,4rel-S)—N-[(1S)-1-(4-{4-chloro-2,3,7,10-tetraazatricyclo[7.4.0.0^2,6]trideca-1(9),3,5,7-tetraen-10-yl}phenyl)-2,2,2-trifluoroethyl]-N-methyl-1-(methylimino)-1-oxo-1λ^e-thiane-4-carboxamide] | 59 nM | 127 nM | – |
| CN(C(=O)C1CCS(=O)(=O)CC1)[C@@H](c1ccc(N2CCCc3c2cnc2cc(Cl)nn32)cc1)C(F)(F)F [CPD0019184, N-[(1S)-1-(4-{4-chloro-2,3,7,10-tetraazatricyclo[7.4.0.0^2,6]trideca-1(9),3,5,7-tetraen-10-yl}phenyl)-2,2,2-trifluoroethyl]-N-methyl-1,1-dioxo-1λ^6-thiane-4-carboxamide] | 59 nM | 68 nM | – |
| CC1CCN(c2ccc([C@H](N(C)C(=O)C3CCS(=O)(=O)CC3)C(F)(F)F)cn2)c2cnc3cc(Cl)nn3c21 (stereo partly drawn) [CPD0021812, N-[(1S)-1-(6-{4-chloro-13-methyl-2,3,7,10-tetraazatricyclo[7.4.0.0^2,6]trideca-1(9),3,5,7-tetraen-10-yl}pyridin-3-yl)-2,2,2-trifluoroethyl]-N-methyl-1,1-dioxo-1λ^6-thiane-4-carboxamide] | 108 nM | 213 nM | – |
| CN1C[C@H](C(=O)N(C)[C@@H](c2ccc(N3CCCc4c3cnc3cc(Cl)nn43)cc2)C(F)(F)F)CC1=O (relative stereo) [CPD0073556, (3rel-R)-N-[(1S)-1-(4-{4-chloro-2,3,7,10-tetraazatricyclo[7.4.0.0^2,6]trideca-1(9),3,5,7-tetraen-10-yl}phenyl)-2,2,2-trifluoroethyl]-N,1-dimethyl-5-oxopyrrolidine-3-carboxamide] | 79 nM | 200 nM | – |
| CN(C(=O)[C@H]1CC[S@+]([O-])CC1)[C@@H](c1ccc(N2CCC3(CC3)c3c2cnc2cc(F)nn32)cc1)C(F)(F)F (relative stereo) [CPD0072933, (1rel-r,4rel-r)-N-methyl-1-oxo-N-[(1S)-2,2,2-trifluoro-1-(4-{4′-fluoro-2′,3′,7′,10′-tetraazaspiro[cyclopropane-1,13′-tricyclo[7.4.0.0^2,6]tridecane]-1′(9′),3′,5′,7′-tetraen-10′-yl}phenyl)ethyl]-1λ^4-thiane-4-carboxamide] | 33 nM | 58 nM | – |
| CN(C(=O)CC1CS(=O)(=O)C1)[C@@H](c1ccc(N2CCCc3c2cnc2cc(Cl)nn32)cc1)C(F)(F)F [CPD0072798, N-[(1S)-1-(4-{4-chloro-2,3,7,10-tetraazatricyclo[7.4.0.0^2,6]trideca-1(9),3,5,7-tetraen-10-yl}phenyl)-2,2,2-trifluoroethyl]-2-(1,1-dioxo-1λ^6-thietan-3-yl)-N-methylacetamide] | 142 nM | 200 nM | – |
| Cc1ncc(C(=O)N(C)[C@@H](c2ccc(N3CCCc4c3cnc3cc(Cl)nn43)cc2)C(F)(F)F)s1 [CPD0019348, N-[(1S)-1-(4-{4-chloro-2,3,7,10-tetraazatricyclo[7.4.0.0^2,6]trideca-1(9),3,5,7-tetraen-10-yl}phenyl)-2,2,2-trifluoroethyl]-N,2-dimethyl-1,3-thiazole-5-carboxamide] | 193 nM | 157 nM | – |
| CC1CCc2c(cnc3cc(Cl)nn23)N1c1ccc([C@H](N(C)C(=O)C2CCS(=O)(=O)CC2)C(F)(F)F)cc1 (stereo partly drawn) [CPD0072806, N-[(1S)-1-{4-[(11rel-R)-4-chloro-11-methyl-2,3,7,10-tetraazatricyclo[7.4.0.0^2,6]trideca-1(9),3,5,7-tetraen-10-yl]phenyl}-2,2,2-trifluoroethyl]-N-methyl-1,1-dioxo-1λ^6-thiane-4-carboxamide] | 69 nM | – | 206 nM |
| C[C@@H]1CCN(c2ccc([C@H](N(C)C(=O)[C@@H]3CCC(=O)NC3)C(F)(F)F)cc2)c2cnc3cc(Cl)nn3c21 (relative stereo) [CPD0074561, (3rel-R)-N-[(1S)-1-[4-[(13rel-R)-4-chloro-13-methyl-2,3,7,10-tetrazatricyclo[7.4.0.0^2,6]trideca-1(9),3,5,7-tetraen-10-yl]phenyl]-2,2,2-trifluoro-ethyl]-N-methyl-6-oxo-piperidine-3-carboxamide] | 29 nM | 92 nM | – |
| COC[C@@]1(C)CCN(c2ccc([C@H](N(C)C(=O)[C@H]3CC[S@@](=N)(=O)CC3)C(F)(F)F)cc2)c2cnc3cc(Cl)nn3c21 (relative stereo) [CPD0073133, (1rel-s,4rel-s)-N-[(1S)-1-[4-[(13rel-S)-4-chloro-13-(methoxymethyl)-13-methyl-2,3,7,10-tetrazatricyclo[7.4.0.0^2,6]trideca-1(9),3,5,7-tetraen-10-yl]phenyl]-2,2,2-trifluoro-ethyl]-1-imino-N-methyl-1-oxo-1λ^6-thiane-4-carboxamide] | 81 nM | 64 nM | – |
| CN1C(=O)OC[C@@H]1C(=O)N(C)[C@@H](c1ccc(N2CCCc3c2cnc2cc(Cl)nn32)cc1)C(F)(F)F (relative stereo) [CPD0073570, (4rel-R)-N-[(1S)-1-(4-{4-chloro-2,3,7,10-tetraazatricyclo[7.4.0.0^2,6]trideca-1(9),3,5,7-tetraen-10-yl}phenyl)-2,2,2-trifluoroethyl]-N,3-dimethyl-2-oxo-1,3-oxazolidine-4-carboxamide] | 62 nM | 216 nM | – |
| COC[C@]1(C)CCN(c2ccc([C@H](N(C)C(=O)[C@H]3CC[S@@+]([O-])CC3)C(F)(F)F)cc2)c2cnc3cc(Cl)nn3c21 (relative stereo) [CPD0073135, (1rel-s,4rel-s)-N-[(1S)-1-[4-[(13rel-R)-4-chloro-13-(methoxymethyl)-13-methyl-2,3,7,10-tetrazatricyclo[7.4.0.0^2,6]trideca-1(9),3,5,7-tetraen-10-yl]phenyl]-2,2,2-trifluoro-ethyl]-N-methyl-1-oxo-1λ^4-thiane-4-carboxamide] | 106 nM | 130 nM | – |
| CN(C(=O)[C@@H]1CC12CCS(=O)(=O)CC2)[C@@H](c1ccc(N2CCCc3c2cnc2cc(Cl)nn32)cc1)C(F)(F)F (relative stereo) [CPD0073921, (1rel-R)-N-[(1S)-1-(4-{4-chloro-2,3,7,10-tetraazatricyclo[7.4.0.0^2,6]trideca-1(9),3,5,7-tetraen-10-yl}phenyl)-2,2,2-trifluoroethyl]-N-methyl-6,6-dioxo-6λ^6-thiaspiro[2.5]octane-1-carboxamide] | 109 nM | 186 nM | – |
| CN(C(=O)[C@@H]1CS(=O)(=O)CC12CC2)[C@@H](c1ccc(N2CCCc3c2cnc2cc(Cl)nn32)cc1)C(F)(F)F (relative stereo) [CPD0073968, (7rel-R)-N-[(1S)-1-(4-{4-chloro-2,3,7,10-tetraazatricyclo[7.4.0.0^2,6]trideca-1(9),3,5,7-tetraen-10-yl}phenyl)-2,2,2-trifluoroethyl]-N-methyl-5,5-dioxo-5λ^6-thiaspiro[2.4]heptane-7-carboxamide] | 100 nM | 199 nM | – |
| CN(C)CC(=O)N1CC[C@@H](C(=O)N(C)[C@@H](c2ccc(N3CCCc4c3cnc3cc(Cl)nn43)cc2)C(F)(F)F)C1 (relative stereo) [CPD0075877, (3rel-S)-N-[(1S)-1-[4-(4-chloro-2,3,7,10-tetrazatricyclo[7.4.0.0^2,6]trideca-1(9),3,5,7-tetraen-10-yl)phenyl]-2,2,2-trifluoro-ethyl]-1-[2-(dimethylamino)acetyl]-N-methyl-pyrrolidine-3-carboxamide] | 115 nM | 172 nM | – |
| CN(C(=O)CN1CCNCC1)[C@@H](c1ccc(N2CCCc3c2cnc2cc(Cl)nn32)cc1)C(F)(F)F [CPD0021745, N-[(1S)-1-(4-{4-chloro-2,3,7,10-tetraazatricyclo[7.4.0.0^2,6]trideca-1(9),3,5,7-tetraen-10-yl}phenyl)-2,2,2-trifluoroethyl]-N-methyl-2-(piperazin-1-yl)acetamide] | 368 nM | 748 nM | – |
| CN(C(=O)[C@H]1C[C@H]([S@@+](C)(=N)[O-])C1)[C@@H](c1ccc(N2CCCc3c2cnc2cc(Cl)nn32)cc1)C(F)(F)F [CPD0073225, (1S,3r)-N-[(1S)-1-(4-{4-chloro-2,3,7,10-tetraazatricyclo[7.4.0.0^2,6]trideca-1(9),3,5,7-tetraen-10-yl}phenyl)-2,2,2-trifluoroethyl]-3-[(S)-imino(methyl)oxo-λ^6-sulfanyl]-N-methylcyclobutane-1-carboxamide] | 53 nM | 122 nM | – |
